Measurements as given in paper PMC7211837, “Design, synthesis, molecular modelling and in vitro screening of monoamine oxidase inhibitory activities of novel quinazolyl hydrazine derivatives” (Royal Society Open Science, 2020).
Entries after “also recorded” stand apart in the source; their conditions may differ. Marks after values point to notes of the source that are not given here.

T1: membrane-bound human MAO-B (Homo sapiens, UniProt P27338)
T1 sequence (P27338 1-520): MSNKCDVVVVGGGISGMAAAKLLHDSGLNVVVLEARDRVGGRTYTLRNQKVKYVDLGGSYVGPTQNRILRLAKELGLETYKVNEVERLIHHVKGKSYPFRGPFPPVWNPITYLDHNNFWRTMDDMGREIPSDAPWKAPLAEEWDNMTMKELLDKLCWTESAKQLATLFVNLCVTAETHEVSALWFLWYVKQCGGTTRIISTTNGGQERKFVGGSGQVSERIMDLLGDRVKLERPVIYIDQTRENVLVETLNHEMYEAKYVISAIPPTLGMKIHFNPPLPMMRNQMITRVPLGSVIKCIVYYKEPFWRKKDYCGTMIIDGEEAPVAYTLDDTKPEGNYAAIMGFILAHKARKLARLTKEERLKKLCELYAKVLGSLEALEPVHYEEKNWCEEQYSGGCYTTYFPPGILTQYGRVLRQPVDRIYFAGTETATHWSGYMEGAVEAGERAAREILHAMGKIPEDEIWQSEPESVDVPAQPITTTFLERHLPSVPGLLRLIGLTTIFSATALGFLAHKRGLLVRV

T2: membrane-bound human MAO-A (Homo sapiens, UniProt P21397)
T2 sequence (P21397 1-527): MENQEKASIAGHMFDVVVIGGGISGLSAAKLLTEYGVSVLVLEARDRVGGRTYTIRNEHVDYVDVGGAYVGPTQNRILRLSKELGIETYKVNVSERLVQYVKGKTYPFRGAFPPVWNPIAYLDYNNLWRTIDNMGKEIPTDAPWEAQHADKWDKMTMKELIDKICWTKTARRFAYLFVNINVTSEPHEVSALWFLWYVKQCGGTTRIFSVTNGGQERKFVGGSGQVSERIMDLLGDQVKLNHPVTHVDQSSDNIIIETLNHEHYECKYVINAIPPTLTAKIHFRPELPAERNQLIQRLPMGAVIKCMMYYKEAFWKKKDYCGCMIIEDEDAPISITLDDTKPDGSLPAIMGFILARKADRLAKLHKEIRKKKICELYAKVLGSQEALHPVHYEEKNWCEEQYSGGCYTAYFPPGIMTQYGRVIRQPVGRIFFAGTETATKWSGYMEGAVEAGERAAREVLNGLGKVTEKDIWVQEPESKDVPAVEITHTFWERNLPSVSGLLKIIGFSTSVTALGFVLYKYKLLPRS

T3: MAO-A (Homo sapiens, UniProt P21397)
T3 sequence (P21397 1-527): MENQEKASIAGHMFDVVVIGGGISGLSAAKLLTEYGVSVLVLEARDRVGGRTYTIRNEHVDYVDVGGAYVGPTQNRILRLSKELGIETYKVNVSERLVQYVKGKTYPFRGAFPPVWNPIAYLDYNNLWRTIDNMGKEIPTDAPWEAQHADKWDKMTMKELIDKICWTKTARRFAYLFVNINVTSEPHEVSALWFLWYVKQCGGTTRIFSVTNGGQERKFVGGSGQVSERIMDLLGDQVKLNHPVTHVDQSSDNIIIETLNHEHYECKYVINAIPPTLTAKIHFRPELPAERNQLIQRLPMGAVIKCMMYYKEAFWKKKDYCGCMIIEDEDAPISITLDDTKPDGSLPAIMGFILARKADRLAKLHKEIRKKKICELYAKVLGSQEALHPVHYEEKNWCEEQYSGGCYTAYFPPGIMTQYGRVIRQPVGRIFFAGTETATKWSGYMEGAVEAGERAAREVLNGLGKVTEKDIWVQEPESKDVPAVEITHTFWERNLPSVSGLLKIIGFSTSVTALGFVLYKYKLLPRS


Experiments:
[1] = biological target: T1, membrane-bound human MAO-B; assay: MAO-B inhibition, H2O2/horseradish peroxidase coupled fluorescence assay with tyramine; format: biochemical; conditions: for maximum inhibition (%) hMAO-B: from dose–response curve, in parentheses after IC50, given if less than 95%; for inhibition at 10 µM: read-out: % inhibition at 10 μM hMAO-B, 10 μM compound, tyramine 0.32 mM (2 × KM), average of two independent experiments; for IC50 (μM) hMAO-B / IC50: tyramine at 2 × KM, seven concentrations 0.01–300 µM, ± s.d., two independent experiments; for IC50: read-out: IC50 (μM) hMAO-B
Method: (§1) Incomplete inhibition of activity could arise either from indirect effects on these enzymes or from the compounds acting as substrates at the highest concentrations.
(§2) The activity of MAO was determined using the coupled assay method of [41, 42] in which the product, H2O2, acts with horseradish peroxidase to convert 10-acetyl-3,7-dihydroxyphenoxazine to the fluorescent resorufin. […] The data were analysed using the equation for a three-parameter curve in Graphpad PRISM v. 4, and the % inhibition calculated from the top and bottom of the resulting curve.

[2] = biological target: T2, membrane-bound human MAO-A; assay: MAO-A inhibition, H2O2/horseradish peroxidase coupled fluorescence assay with tyramine; format: biochemical; conditions: for mechanism of inhibition of MAO-A: 30 min preincubation, dilution ×100, increasing substrate concentration; for inhibition at 10 µM: read-out: % inhibition at 10 μM hMAO-A; for inhibition of MAO-A compared with MAO-B in the screen: screen at 10 µM; for IC50 (μM) hMAO-A / IC50: tyramine at 2 × KM, seven concentrations 0.01–300 µM, ± s.d., two independent experiments; for IC50: read-out: IC50 (μM) hMAO-A
Method: as §1, §2

MAO-A [3] = biological target: T3, MAO-A; assay: Oxidation of compound by MAO-A in the standard coupled assay in the absence of tyramine; format: biochemical
Method: (§3) Compound 6 in the screening assay with 10 µM inhibitor gave an increased rate of appearance of fluorescence indicating faster production of the product H2O2 (not the slower rate observed with other compounds that inhibit MAO activity).
(§4) Figure 3. Oxidation of 6 (squares) but not 12d (triangles) by MAO-A. The concentration of compound was varied in the standard assay coupled to the production of H2O2 but in the absence of the substrate tyramine.
(§5) The activity of MAO was determined using the coupled assay method of [41, 42] in which the product, H2O2, acts with horseradish peroxidase to convert 10-acetyl-3,7-dihydroxyphenoxazine to the fluorescent resorufin. […] For compounds that gave more than 30% inhibition, the IC50 was determined using seven concentrations of each compound (0.01–300 μM) with substrate at 2 × KM. […] The data were analysed using the equation for a three-parameter curve in Graphpad PRISM v. 4, and the % inhibition calculated from the top and bottom of the resulting curve.

MAO-A [4] = test system: MAO-A; parameters: method as in PMID 16356714, PMID 20708306, PMID 19043245, PMID 25707011, PMID 25922182; conditions: lead structure of Chart 1, earlier series of the group ref 21–25; cited from earlier work
[5] = substrate: COc1cc(/C=N/NC(=O)CNC(=O)c2cc(Cl)ccc2/N=C/c2ccccc2)ccc1O; assay: Oxidation of compound by MAO-A in the standard coupled assay in the absence of tyramine; format: biochemical, human; conditions: other: compound as substrate
Method: as §3, §4, §5

[6] = 10 μM compound, tyramine 0.8 mM (2 × KM), average of two independent experiments

Row | Molecule | inhibition at 10 µM [1] [%] | IC50 [1] [µM] | inhibition at 10 µM [2, 6] [%] | melting point | further results
1 | COc1cc(C=NNC(=O)CN2C(=O)c3cc(Cl)ccc3NC2c2ccccc2)ccc1O (centres unmarked) [5h, 2-(6-Chloro-4-oxo-2-phenyl-1,4-dihydroquinazolin-3(2H)-yl)-N'-(4-hydroxy-3-methoxybenzylidene)-acetohydrazide] | 72 | 0.44 ± 0.1 | 70 | 240 to 242 °C | maximum inhibition (%) hMAO-B [1]: full inhibition; IC50 (μM) hMAO-B [1]: micromolar affinity; mechanism of inhibition of MAO-A [2]: competitive inhibition; selectivity MAO-A versus MAO-B ([2]; from IC50 values on MAO-A and MAO-B): non-selective; inhibition of MAO-A compared with MAO-B in the screen [2]: equal inhibition of MAO-A and MAO-B; also recorded: equally inhibited; IC50 (μM) hMAO-A [2]: micromolar potency; IC50 [2]: 0.31 ± 0.11 µM
2 | Cc1nc2ccccc2c(=O)n1CC(=O)NN=Cc1ccccc1 [12a, N'-Benzylidene-2-(2-methyl-4-oxoquinazolin-3(4H)-yl)acetohydrazide] | 26 | – | 6 | 242 to 245 °C | –
3 | Cc1nc2ccccc2c(=O)n1CC(=O)NN=Cc1ccc(O)cc1 [12b, N'-(4-Hydroxybenzylidene)-2-(2-methyl-4-oxoquinazolin-3(4H)-yl)acetohydrazide] | 16 | > 100 | 16 | 192 to 195 °C | inhibition of MAO-A compared with MAO-B in the screen [2]: equal inhibition of MAO-A and MAO-B; also recorded: equally inhibited
4 | COc1ccc(C=NNC(=O)Cn2c(C)nc3ccccc3c2=O)cc1 [12c, N'-(4-Methoxybenzylidene)-2-(2-methyl-4-oxoquinazolin-3(4H)-yl)acetohydrazide] | 21 | – | 5 | > 229 °C (dec.) | –
5 | COc1cc(C=NNC(=O)Cn2c(C)nc3ccccc3c2=O)ccc1O [12d, N'-(4-Hydroxy-3-methoxybenzylidene)-2-(2-methyl-4-oxoquinazolin-3(4H)-yl)acetohydrazide] | 52 | 3.62 ± 0.69 | 27 | 258 to 260 °C | mechanism of inhibition of MAO-B ([1]; 30 min preincubation, dilution ×100, increasing substrate concentration): competitive inhibition; maximum inhibition (%) hMAO-B [1]: full inhibition; IC50 (μM) hMAO-B [1]: micromolar affinity; mechanism of inhibition of MAO-A [2]: competitive inhibition; maximum inhibition (%) hMAO-A ([2]; from dose–response curve, in parentheses after IC50, given if less than 95%): 32%; IC50 [2]: 1.41 ± 0.47 µM
6 | COc1cc(/C=N/NC(=O)CNC(=O)c2cc(Cl)ccc2/N=C/c2ccccc2)ccc1O [compound 6, 2-(((E)-benzylidene)amino)-5-chloro-N-(2-(2-((E)-4-hydroxy-3-methoxybenzylidene)hydrazinyl)-2-oxoethyl)benzamide] | 12 | 9 ± 2.3 | – | 257 to 259 °C | H2O2 production / oxidation by MAO-A in the absence of the normal substrate (MAO-A [3]; absence of tyramine): gave a measurable rate of H2O2 production; Vmax for oxidation by MAO-A as % of the Vmax for tyramine (MAO-A [3]; same conditions, tyramine run in parallel): 77%; % inhibition at 10 μM hMAO-A [2, 6]: none; IC50 (μM) hMAO-A [2]: (rate increases)^c
7 | C/C(=N/NC(=O)Cn1c(=O)c(Cc2ccccc2)nc2ccccc21)c1ccc(O)cc1 [lead structure] | – | – | – | – | MAO-A activity PIC50 (MAO-A [4]): 7.8
8 | MAO-A (Homo sapiens) (protein) MENQEKASIAGHMFDVVVIGGGISGLSAAKLLTEYGVSVLVLEARDRVGGRTYTIRNEHVDYVDVGGAYVGPTQNRILRLSKELGIETYKVNVSERLVQYVKGKTYPFRGAFPPVWNPIAYLDYNNLWRTIDNMGKEIPTDAPWEAQHADKWDKMTMKELIDKICWTKTARRFAYLFVNINVTSEPHEVSALWFLWYVKQCGGTTRIFSVTNGGQERKFVGGSGQVSERIMDLLGDQVKLNHPVTHVDQSSDNIIIETLNHEHYECKYVINAIPPTLTAKIHFRPELPAERNQLIQRLPMGAVIKCMMYYKEAFWKKKDYCGCMIIEDEDAPISITLDDTKPDGSLPAIMGFILARKADRLAKLHKEIRKKKICELYAKVLGSQEALHPVHYEEKNWCEEQYSGGCYTAYFPPGIMTQYGRVIRQPVGRIFFAGTETATKWSGYMEGAVEAGERAAREVLNGLGKVTEKDIWVQEPESKDVPAVEITHTFWERNLPSVSGLLKIIGFSTSVTALGFVLYKYKLLPRS | – | – | – | – | Km [5]: 35.5 µM
